From patent US7883846B2, “Heterologous stimulus-gated ion channels and methods of using same” (priority 2002, dated 2011)

Columns and labels:
P2X2 = assay: Photostimulation of P2X2-expressing neurons with caged agonist; format: cell-based, rat
[1] = system: hippocampal neurons lacking the cognate exogenous receptor; assay: Stimulation of hippocampal neurons lacking the cognate exogenous receptor / untransfected neurons; format: cell-based, rat; conditions: 50 nM capsaicin, 100 μM menthol, 50 μM ATP; off-diagonal receptor-agonist combinations
[2] = target: T1, TRPV1 expressed ectopically in nociceptor neurons of C. elegans (Rattus norvegicus, UniProt O35433); conditions: wild-type animals lack the behavior; cited from earlier work
T1 construct: host or cells: transgenic C. elegans nociceptor neurons
T1 sequence (O35433 whole entry): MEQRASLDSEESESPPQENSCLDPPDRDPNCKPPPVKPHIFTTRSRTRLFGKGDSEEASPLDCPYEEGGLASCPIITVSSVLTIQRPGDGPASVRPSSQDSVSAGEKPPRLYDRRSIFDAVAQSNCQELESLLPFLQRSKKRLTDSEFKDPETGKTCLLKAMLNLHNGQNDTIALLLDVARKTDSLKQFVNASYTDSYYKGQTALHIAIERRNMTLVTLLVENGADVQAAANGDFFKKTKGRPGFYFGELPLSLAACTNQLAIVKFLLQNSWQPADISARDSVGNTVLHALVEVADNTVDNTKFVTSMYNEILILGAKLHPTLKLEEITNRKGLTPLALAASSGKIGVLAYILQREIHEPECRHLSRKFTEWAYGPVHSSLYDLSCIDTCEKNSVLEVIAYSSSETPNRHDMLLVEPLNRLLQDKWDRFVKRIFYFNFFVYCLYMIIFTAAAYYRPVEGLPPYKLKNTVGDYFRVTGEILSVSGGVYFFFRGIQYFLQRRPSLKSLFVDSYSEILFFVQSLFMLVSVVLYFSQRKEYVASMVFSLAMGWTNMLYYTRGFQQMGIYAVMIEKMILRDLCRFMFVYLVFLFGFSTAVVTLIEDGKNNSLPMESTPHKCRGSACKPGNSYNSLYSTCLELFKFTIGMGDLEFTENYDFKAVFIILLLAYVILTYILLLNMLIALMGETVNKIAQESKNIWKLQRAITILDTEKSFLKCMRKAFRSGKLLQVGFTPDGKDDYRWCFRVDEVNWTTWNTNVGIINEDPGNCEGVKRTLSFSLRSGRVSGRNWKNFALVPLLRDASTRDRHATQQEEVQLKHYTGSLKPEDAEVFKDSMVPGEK

rat TRPV1 = target: T2, rat TRPV1 (Rattus norvegicus, UniProt O35433); assay: Pharmacological stimulation of transfected hippocampal neurons, whole-cell patch clamp (TRPV1); format: cell-based
T2 construct: expressed in transfected cells; host or cells: dissociated hippocampal neurons from E19 rats, calcium phosphate transfection of pCI-fluor plasmid
T2 sequence (O35433 whole entry): as above
Procedure: (§1) Three plasmid species were prepared, each species containing a stimulus-gated ion channel (rat TRPV1, rat TRPM8 or rat P2X2) under the control of the CMV promoter in pCI-fluor, a derivative of the mammalian expression vector pCI-neo (Promega). To create pCI-fluor, the aminoglycoside phosphotransferase coding sequence of pCI-neo was replaced with that of EGFP bearing a 20-amino acid N-terminal GAP43 tag (Zemelman, Lee et al. 2002). Rat TRPV1 and rat TRPM8 were expressed as monomers; rat P2X2 subunits were linked into covalent trimers via tandem repeats of the tripeptide -Ser-Gly-Gly-. […]
(§2) Transfected neurons in cultures and infected neurons in brain slices were identified by GAP43-EGFP fluorescence and recorded in the whole-cell patch-clamp configuration. […] Membrane potentials and transmembrane currents were recorded with an Axoclamp-2B amplifier (Axon Instruments) in bridge and continuous single-electrode voltage-clamp mode, respectively, and digitized at 5 kHz without filtering (Digidata 1200, Axon Instruments). […]
(§3) To determine dose-response relationships, the peak amplitudes as well as the integrated charges carried by depolarizing currents at different agonist concentrations were measured under whole-cell voltage clamp, at a constant holding potential of −65 mV.

TRPV1 = target: T3, TRPV1 (Rattus norvegicus, UniProt O35433); format: cell-based
T3 construct: expressed in transfected cells; host or cells: dissociated hippocampal neurons from E19 rats, calcium phosphate transfection of pCI-fluor plasmid
T3 sequence (O35433 whole entry): as above

rat TRPM8 = target: T4, rat TRPM8 (Rattus norvegicus, UniProt Q8R455); assay: Pharmacological stimulation of transfected hippocampal neurons, whole-cell patch clamp (TRPM8); format: cell-based
T4 construct: expressed in transfected cells; host or cells: dissociated hippocampal neurons from E19 rats, calcium phosphate transfection of pCI-fluor plasmid
T4 sequence (Q8R455 whole entry): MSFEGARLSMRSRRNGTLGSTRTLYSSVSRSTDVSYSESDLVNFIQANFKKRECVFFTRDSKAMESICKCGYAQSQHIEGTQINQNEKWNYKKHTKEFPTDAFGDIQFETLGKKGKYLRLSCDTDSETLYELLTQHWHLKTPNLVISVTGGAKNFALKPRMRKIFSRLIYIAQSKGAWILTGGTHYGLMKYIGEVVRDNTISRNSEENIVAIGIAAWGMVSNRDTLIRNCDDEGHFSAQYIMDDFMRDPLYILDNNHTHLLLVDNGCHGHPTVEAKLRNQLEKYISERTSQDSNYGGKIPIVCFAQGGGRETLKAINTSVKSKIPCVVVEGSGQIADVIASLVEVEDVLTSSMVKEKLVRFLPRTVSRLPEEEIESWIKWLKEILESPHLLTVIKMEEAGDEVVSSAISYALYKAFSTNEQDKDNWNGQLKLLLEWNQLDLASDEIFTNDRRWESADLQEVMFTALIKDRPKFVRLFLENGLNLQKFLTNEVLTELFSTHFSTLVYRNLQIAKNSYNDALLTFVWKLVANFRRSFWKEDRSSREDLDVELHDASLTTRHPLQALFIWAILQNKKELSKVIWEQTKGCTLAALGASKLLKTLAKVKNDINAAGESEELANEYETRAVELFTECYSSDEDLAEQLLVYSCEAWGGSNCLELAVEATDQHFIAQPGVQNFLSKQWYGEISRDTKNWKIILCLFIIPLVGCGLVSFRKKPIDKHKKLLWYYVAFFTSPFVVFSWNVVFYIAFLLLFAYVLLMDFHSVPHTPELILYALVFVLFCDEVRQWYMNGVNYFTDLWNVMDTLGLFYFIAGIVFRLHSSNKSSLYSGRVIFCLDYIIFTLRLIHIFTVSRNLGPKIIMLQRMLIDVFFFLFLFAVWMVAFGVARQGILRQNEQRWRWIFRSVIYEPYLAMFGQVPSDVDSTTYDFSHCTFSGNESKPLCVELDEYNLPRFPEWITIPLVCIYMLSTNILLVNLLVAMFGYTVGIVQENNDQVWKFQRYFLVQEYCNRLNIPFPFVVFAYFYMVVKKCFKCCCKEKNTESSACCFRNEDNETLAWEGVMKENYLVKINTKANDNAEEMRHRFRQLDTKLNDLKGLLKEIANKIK
Procedure: as §1, §2, §3

rat P2X2 = assay: Pharmacological stimulation of transfected hippocampal neurons, whole-cell patch clamp (P2X2); format: cell-based; conditions: 50 μM ATP, 1-ml bolus, whole-cell current clamp, 50 μM AP-5 plus 10 μM CNQX
Procedure: Three plasmid species were prepared, each species containing a stimulus-gated ion channel (rat TRPV1, rat TRPM8 or rat P2X2) under the control of the CMV promoter in pCI-fluor, a derivative of the mammalian expression vector pCI-neo (Promega). To create pCI-fluor, the aminoglycoside phosphotransferase coding sequence of pCI-neo was replaced with that of EGFP bearing a 20-amino acid N-terminal GAP43 tag (Zemelman, Lee et al. 2002). Rat TRPV1 and rat TRPM8 were expressed as monomers; rat P2X2 subunits were linked into covalent trimers via tandem repeats of the tripeptide -Ser-Gly-Gly-.
Hippocampal neurons, obtained from E19 rats and grown in dissociated cultures, were exposed to 4.2 μg cm^−2 of calcium phosphate-precipitated plasmid DNA as described in Example 1 (pH 7.08) for 20 min to allow plasmid uptake. Transfections were performed on day 8 after plating; immunocytochemical analyses and electrophysiological recordings on days 6-10 after transfection. […]
as §2

[3] = 1 mM DMNPE-ATP, 1-s light pulse, mean±s.d., n=16

Sequence of P2X2 (P49653 whole entry): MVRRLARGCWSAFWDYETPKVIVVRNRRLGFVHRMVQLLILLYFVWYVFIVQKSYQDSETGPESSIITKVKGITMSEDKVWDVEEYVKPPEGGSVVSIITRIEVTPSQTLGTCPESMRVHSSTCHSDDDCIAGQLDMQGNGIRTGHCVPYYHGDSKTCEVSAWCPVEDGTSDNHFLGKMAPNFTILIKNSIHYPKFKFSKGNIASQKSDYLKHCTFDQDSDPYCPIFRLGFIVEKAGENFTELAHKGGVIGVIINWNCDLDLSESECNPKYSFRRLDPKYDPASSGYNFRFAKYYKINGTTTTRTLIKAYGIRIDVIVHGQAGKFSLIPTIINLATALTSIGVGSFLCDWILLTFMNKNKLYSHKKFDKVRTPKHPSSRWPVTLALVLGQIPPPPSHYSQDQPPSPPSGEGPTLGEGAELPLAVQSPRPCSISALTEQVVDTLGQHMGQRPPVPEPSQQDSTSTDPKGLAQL

With “P3-(1-(4,5-dimethoxy-2-nitrophenyl)ethyl) (DMNPE) ester of ATP [DMNPE-ATP]” the “duration of window of activity” value (P2X2; [3]) was 2,456±1,273 ms, the “lag period between optical stimulus and window of activity” value (P2X2; [3]) was 1,136±96 ms and the “membrane potentials and transmembrane conductances in presence of caged ligand without light” value (P2X2; 1 mM DMNPE-ATP, whole-cell current- or voltage-clamp) was “unaffected”. The “biological activity due to chemical or enzymatic decomposition of the caged compound” value (P2X2; recordings lasting for >30 min, 1 mM) was “No trace of biological activity”.

In the case of `COc1cc(CNC(=O)CCCC/C=C/C(C)C)ccc1O` [capsaicin], the “stimulation of hippocampal neurons lacking the cognate exogenous receptor” value [1] is listed as “None of the three agonists, including ATP, was able to stimulate”, the “behavior elicited in C. elegans” value [2] is listed as “avoidance behaviors” and the “response of membrane potential to a bolus of agonist” value (from here on “response of membrane potential”) (rat TRPV1; 50 nM capsaicin, 1-ml bolus, whole-cell current clamp, 50 μM AP-5 plus 10 μM CNQX) is listed as “depolarization, spiking, and repolarization”. The “peak spike rate (firing frequency)” value (rat TRPV1; current clamp, sliding 200-ms windows, increasing agonist concentration, 382 agonist applications to 60 neurons) was 40 Hz.

In the case of `COc1cc(COC(=O)Oc2ccc(CNC(=O)CCCC/C=C/C(C)C)cc2OC)c([N+](=O)[O-])cc1OC` [DMNB-capsaicin], the “action potential frequency after light pulse” value (TRPV1) is reported as 15-40 Hz, the “biological activity due to chemical or enzymatic decomposition of the caged compound” value (TRPV1) is reported as “No trace of biological activity” and the “duration of window of activity” value (TRPV1) is reported as 2,651±383 ms. The “lag of onset of activity behind optical stimulus” value (TRPV1) was 5,035±2,061 ms, the “membrane potentials and transmembrane conductances in presence of caged ligand without light” value (TRPV1) was “unaffected” and the “response on repeated photostimulation of the same neuron” value (TRPV1) was “did not attenuate”.

For `CC(C)[C@@H]1CC[C@@H](C)C[C@H]1O` [menthol, [1R,2S,5R]-5-methyl-2-[1-methylethyl]cyclo-hexanol], the “stimulation of hippocampal neurons lacking the cognate exogenous receptor” value [1] was “None of the three agonists, including ATP, was able to stimulate”, the “response of membrane potential” value (rat TRPM8; 100 μM menthol, 1-ml bolus, whole-cell current clamp, 50 μM AP-5 plus 10 μM CNQX) was “depolarization, spiking, and repolarization” and the EC50 (rat TRPM8; whole-cell voltage clamp, holding potential −65 mV, results not shown, read-out: half-maximal response) was 150 µM.

In the case of `Nc1ncnc2c1ncn2[C@@H]1O[C@H](COP(=O)(O)OP(=O)(O)OP(=O)(O)O)[C@@H](O)[C@H]1O` [ATP], the “stimulation of hippocampal neurons lacking the cognate exogenous receptor” value [1] is reported as “None of the three agonists, including ATP, was able to stimulate” and the “response of membrane potential” value (rat P2X2) is reported as “depolarization, spiking, and repolarization”.
